Measurements: patent US20190083521A1, “COMBINATION THERAPY FOR TREATING CANCER” (Epizyme, Inc., priority 2014, published 2019)
Entries after “also recorded” stand apart in the source; their conditions may differ. Values belong to the molecule of their own block, whether it stands above or below them.

Tests used:
[1] = tested on: MOLM-13 (MLL-AF9) cells; assay: Combination proliferation assay with Compound A2 (CellTiter-Glo, Chou-Talalay CI); type: cell-based, human; conditions: for Combination effect, reverse order of addition with Ara-C washout: washed out, then Compound A2 7 days; for Combination effect with Compound A2 (Table 2): MOLM-13 MLL-AF9
In short: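 Viability by CellTiter-Glo ATP luminescence; fraction affected versus DMSO controls, combination index by Chou-Talalay (CI <1 synergy, >1 antagonism).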

[2] = tested on: MV4-11 (MLL-AF4) cells; assay: as above; type: cell-based, human
In short: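 Viability by CellTiter-Glo ATP luminescence; fraction affected versus DMSO controls; combination index by Chou-Talalay method (CI <1 synergy, >1 antagonism).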

[3] = tested on: SKM-1 (non-MLL-rearranged AML) cells; assay: as above; type: cell-based, human
Experimental: (§1) Graphs representing values of combination index (CI) versus Fractional effect (Fa) known as Fa-CI plots were generated and synergy was evaluated.
(§2) Viability was determined using CellTiter-Glo® (Promega).
MV4-11 cells were maintained in IMDM supplemented with 10% fetal bovine serum. MOLM-13 and SKM-1 cells were maintained in Roswell Park Memorial Institute medium (RPMI) supplemented with 10% fetal bovine serum. They were cultured in flasks or plates in a humidified 5% CO2 atmosphere.
Proliferation studies were performed using MOLM-13, MV4-11 and SKM-1 cell lines in vitro to evaluate the cancer cell killing effect of a combination of two agents together on cell growth. Initial proliferation studies were performed to determine the IC50 values of a given compound in each cell line. The cell counts were measured by ATP quantitation using the Promega Cell Titer Glo kit and luminescence values correspond to the amount of ATP in a given well.
Compounds evaluated for synergy in the co-treatment phase were tested in a range which was bracketed around the IC50's. The compounds were plated to a 96 well plate in a matrix format which includes increasing concentrations of each drug in the combination in a constant ratio, in addition to the effect of each compound alone in the study. Cells were seeded and grown in the log-linear phase for 3 or 7 days in the cotreatment phase. Maximum and minimum inhibition (DMSO alone) controls were used in each plate to calculate fraction affected (Fa) of a test well. DMSO concentration was kept at 0.1% v/v. The drug combination analysis was performed utilizing the Chou-Talalay method. Synergy was determined using the software package Calcusyn by Biosoft. The combination index (CI) is the term used to describe the level of synergy or antagonism in a given test system. A combination index less than one indicates synergy, and a CI greater than one indicates antagonism.
The drug combination analysis was performed using the Chou-Talalay method. Graphs representing values of combination index (CI) versus Fractional effect (Fa) known as Fa-CI plots were generated and synergy was evaluated.

[4] = tested on: EOL-1 (MLL-PTD) cells; assay: Combination proliferation assay with Compound A2 (Chou-Talalay CI); type: cell-based, human; conditions: EOL-1 (MLL-PTD)
Experimental: as §1, §2

[5] = tested on: KOPM-88 (MLL-PTD) cells; assay: as above; type: cell-based, human; conditions: KOPM-88 (MLL-PTD)
Experimental: as §1, §2

[6] = tested on: MOLM-13 cells; assay: Flow cytometric analysis of cell cycle and Annexin V (apoptosis); type: cell-based, human
Experimental: (§3) A Guava EasyCyte HT™ flow cytometer was used to measure DNA content, Annexin V staining and cell surface expression of CD14 and CD11b markers on Days 10 and 14.
(§4) On Day 0 MOLM-13 cells are seeded at 3,000 cells/mL. On Day 7 and Day 10 MOLM-13 cells are counted and reseeded at 50,000 cells/mL. […] On Day 10 They were redosed again. On Day 14 the experiment was terminated. Cells were sampled for CD14 and CD11b analysis on Days 7, 10 and 14.
To evaluate the fraction of cells in each cell cycle, flow cytometric analysis was performed. FACS analysis for detection of cell death by apoptosis, and cell cycle was performed.
Cells were harvested on days 7, 10 and 14 and split to allow simultaneous analysis of cell cycle and Annexin V staining. Apoptosis was determined using the Guava Nexin Assay (Millipore 4500-0450) and cells were prepared according to the manufacturer's recommendations. Samples were analyzed using the Guava EasyCyte Plus System (Millipore). Cells for cell cycle analysis were pelleted by centrifugation at 200×g for 5 minutes at 4° C., washed twice with ice cold PBS then fixed with 70% ice cold ethanol. All samples were analyzed together at end of experiment. Following fixation cells were washed with PBS and stained with the Guava cell cycle reagent (Millipore 4500-0220) for 30 minutes. Samples were analyzed using the Guava EasyCyte Plus System (Millipore).

[7] = tested on: MOLM-13 cells; assay: CD11b and CD14 differentiation marker expression by flow cytometry; type: cell-based, human; conditions: single agents
Experimental: as §3, §4
On day 7, 10, and 14, cells were collected for analysis. The cells were prepared by washing twice in PBS, followed by fixation in 4% formaldehyde for ten minutes at 37° C. After fixation cells were washed and blocked with blocking buffer for 10 minutes at room temperature. Cells were then incubated in presence of anti-CD14, anti-CD11b or anti-IgG antibody for 1 hour at room temperature while rotating. Cells were washed, re-suspended in PBS and 5,000 events were analyzed using ExpressPro software on the GuavaCyte Plus System.

[8] = tested on: MOLM-13 (MLL-AF9) cells; assay: Example 7 primary screen: 300 nM EPZ-5676 pre-treatment, second compound 72 h, ATPLite, GI100 shift; type: cell-based, human; conditions: Homo sapiens, 264 h; MOLM-13; single agent; read-out: EPZ-5676 11-day (Primary screen) IC50
[9] = tested on: SKM-1 (non-MLLr) cells; assay: as above; type: cell-based, human; conditions: Homo sapiens, 264 h; SKM-1; single agent; read-out: EPZ-5676 11-day (Primary screen) IC50
[10] = tested on: OCI-AML-4 (MLL-ENL) cells; assay: as above; type: cell-based; conditions: 264 h; OCI-AML-4; single agent; read-out: EPZ-5676 11-day (Primary screen) IC50
Experimental: Cells were split using EPZ-5676 or DMSO containing growth media and further incubated for an additional 3-day pre-treatment time. Cells were finally seeded in growth media containing EPZ-5676 or DMSO in 384-well plates at 500 cell/well density. Cells were then equilibrated in incubators for 24 hours before treatment with a second compound. Treated assay plates were incubated with a second compound for 72 hours. After this time, plates were developed for endpoint analysis using ATPLite to measure ATP content, which is used as an indicator of cell viability.
“N/D” means the GI100 of the second compound could not be determined for both conditions and “-” means not tested.
Growth Inhibition (GI) as a measure of cell viability: The cell viability of vehicle was measured at the time of dosing the second agent (T0) and after seventy-two hours (T72). A GI reading of 0% represents no growth inhibition—cells treated with test compound as compared to T72 vehicle signals were measured. […] A GI 200% represents complete death of all cells in the culture well. Compounds reaching an activity plateau of GI 200% are considered cytotoxic. GI is calculated by applying the following test and equation: […]

[11] = tested on: MOLM-13 (MLL-AF9) cells; assay: Example 7 retest: EPZ-5676 pre-treatment, second compound 72 h, Cell Titer Glo, growth inhibition; type: cell-based; conditions: Homo sapiens, 240 h, single agent
[12] = tested on: OCI-AML-4 (MLL-ENL) cells; assay: as above; type: cell-based; conditions: 240 h, single agent
[13] = tested on: THP-1 (MLL-AF9) cells; assay: as above; type: cell-based; conditions: 240 h, single agent, read-out: EPZ-5676 10-day IC50
[14] = tested on: ML-2 (MLL-AF6) cells; assay: as above; type: cell-based; conditions: 240 h, single agent, read-out: EPZ-5676 10-day IC50
[15] = tested on: RS4-11 (MLL-AF4) cells; assay: as above; type: cell-based; conditions: Homo sapiens, 240 h, single agent, read-out: EPZ-5676 10-day IC50
[16] = tested on: SKM-1 (non-MLLr) cells; assay: as above; type: cell-based; conditions: Homo sapiens, 240 h, single agent
[17] = 14 day treatment, 156 nM Compound A2 or 63 nM Ara-C

SMILES: Nc1ccn([C@@H]2O[C@H](CO)[C@@H](O)[C@@H]2O)c(=O)n1 [Ara-C, cytarabine]
- Combination effect with Compound A2 (Table 4) ([1]; MOLM-13 (MLL-AF9), 7 Day Cotreatment Model): Strong Synergy
- Combination effect with Compound A2 ([1]; MOLM-13, 4 + 3 Model (4 days Compound A2 pretreatment, then 3 days co-treatment)): Synergy (A combination index less than one indicates synergy)
- Combination effect with Compound A2 ([1]; MOLM-13, 7 Day Cotreatment (Example 1)): Synergy (A combination index less than one indicates synergy)
- Combination effect, reverse order of addition ([1]; MOLM-13, Ara-C 3 days, then Compound A2 and Ara-C co-treatment 7 days): Synergy (Drug synergy was statistically defined by CI values less than 1)
- Combination effect, reverse order of addition with Ara-C washout ([1]; MOLM-13, Ara-C 3 days): Combination benefit is maintained
- Combination effect, reverse order of addition with Ara-C washout ([1]; MOLM-13, Ara-C 3 days, listed as cytarabine): essentially the same level of synergistic cell killing
- Antiproliferative combination effect after Compound A2 washout ([1]; MOLM-13, Compound A2 washed out prior to addition of the SOC agent): durable combination benefit; also recorded: maintained
- Antiproliferative combination effect with Compound A2 ([1]; MOLM-13, pre-treatment model, no Compound A2 washout): synergistic
- Combination effect with Compound A2 (Table 2) [1]: Synergy (Drug synergy was statistically defined by CI values less than 1)
- Combination effect with Compound A2 (Table 2) ([1]; listed as cytarabine): synergistically
- Combination effect with Compound A2 ([2]; MV4-11, 7 Day Cotreatment (Example 1)): Synergy (A combination index less than one indicates synergy)
- Antiproliferative combination effect after Compound A2 washout ([2]; MV4-11, Compound A2 washed out prior to addition of the SOC agent): maintained
- Antiproliferative combination effect with Compound A2 ([2]; MV4-11, pre-treatment model, no Compound A2 washout): synergistic
- Combination effect with Compound A2 (Table 2) ([2]; MV4-11 MLL-AF4): synergistically
- Combination effect with Compound A2 (Table 2) ([3]; SKM-1 AML: Non-rearranged): did not act synergistically
- Effect of Compound A2 on antiproliferative activity of the second agent ([3]; SKM-1 non-MLL-rearranged (Example 5)): did not affect
- Combination effect with Compound A2 (Table 3) [4]: Synergy (Drug synergy was statistically defined by CI values less than 1)
- Combination effect with Compound A2 (Table 3) [5]: Synergy (Drug synergy was statistically defined by CI values less than 1)
- Apoptosis in combination with Compound A2 ([6]; 156 nM Compound A2 + 63 nM Ara-C): enhance apoptosis
- Sub-G1 cell population in combination with Compound A2 ([6]; 156 nM Compound A2 + 63 nM Ara-C, at 10 and 14 days): significant increase
- Apoptotic cell population, single agent [6, 17]: modest increase
- Sub-G1 cell population, single agent [6, 17]: minimal effect
- Differentiation markers CD11b and CD14 [7]: time and concentration dependent up-regulation

- IC50 [8]: 150 nM
- IC50 [9]: > 3000 nM
- IC50 [10]: > 3000 nM
- IC50 ([11]; MOLM-13 (MLL-AF9), read-out: EPZ-5676 10-day IC50): 75 nM
- IC50 ([11]; MOLM-13, read-out: EPZ-5676 10-day (Retest) IC50): 75 nM
- IC50 ([12]; OCI-AML-4 (MLL-ENL), read-out: EPZ-5676 10-day IC50): > 3000 nM
- IC50 ([12]; OCI-AML-4, read-out: EPZ-5676 10-day (Retest) IC50): > 3000 nM
- IC50 [13]: > 3000 nM
- IC50 [15]: > 3000 nM
- IC50 ([16]; SKM-1 (non-MLLr), read-out: EPZ-5676 10-day IC50): > 3000 nM
- IC50 ([16]; SKM-1, read-out: EPZ-5676 10-day (Retest) IC50): > 3000 nM
SMILES: CC(C)N(C[C@H]1O[C@@H](n2cnc3c(N)ncnc32)[C@H](O)[C@@H]1O)[C@H]1C[C@@H](CCc2nc3cc(C(C)(C)C)ccc3[nH]2)C1 [Compound A2, pinometostat]
- Combination effect with T0070907 (PPAR antagonist) ([1]; MOLM-13, co-treatment model (Example 8)): Synergy (Drug synergy was statistically defined by CI values less than 1)
- IC50 [14]: > 3000 nM
